Like-named read-outs stand apart in the source and are kept apart here.
Key:
PKR(G332S) = PKR(G332S) (Homo sapiens, UniProt P30613, G332S); test: Luminescence Biochemical Assay (Kinase Glo Plus), PKR G332S mutant; details: with FBP; for activation at 1.54 µM: 1.54 μM compound, read-out: AC50 LUM KGP FBP % Fold@1.54 μM mean; for Emax: read-out: AC50 LUM KGP FBP MAX % FOLD mean
Procedure: In some embodiments, a PKR Activating Compound can have: (1) an AC50 value of less than 0.1 μM (e.g., compounds with AC50 values of “+++” in Table 13), 0.1-1.0 μM (e.g., compounds with AC50 values of “++” in Table 13), or 1.01-40 μM (e.g., compounds with AC50 values of “+” in Table 13); (2) a MAX % Fold of 75%-250%, 250-500%, or 75%-500%; and/or (3) a % Fold@1.54 μM of 75%-250%, 250-500%, or 75%-500%. In some embodiments, a PKR Activating Compound has (1) an AC50 value of less than 1.0 μM; (2) a MAX % Fold of 75%-500%; and/or (3) a % Fold@1.54 μM of 75%-500%.
The phosphorylation of Adenosine-5′-diphosphate (ADP) by various mutants of PKR was determined by the Kinase Glo Plus Assay (Promega) in the presence or absence of FBP [D-Fructose-1,6-diphosphate; BOC Sciences, CAS: 81028-91-3] as follows. Unless otherwise indicated, all reagents were purchased from Sigma-Aldrich. All reagents were prepared in buffer containing 50 mM Tris-HCl, 100 mM KCl, 5 mM MgCl2, and 0.01% Triton X100, 0.03% BSA, and 1 mM DTT. Enzyme and PEP [Phospho(enol) pyruvic acid] were added at 2× to all wells of an assay-ready plate containing serial dilutions of test compounds or DMSO vehicle. Final enzyme concentrations for PKR(wt), PKR(R510Q), and PKR(G332S) were 0.8 nM, 0.8 nM, and 10 nM respectively. Final PEP concentration was 100 μM. The Enzyme/PEP mixture was incubated with compounds for 30 minutes at RT before the assay was initiated with the addition of 2×ADP [Adenosine-5′-diphosphate] and KinaseGloPlus. Final concentration of ADP was 100 μM. […] For assays containing FBP, that reagent is added at 30 μM upon reaction initiation. Reactions were allowed to progress for 45 minutes at RT until luminescence was recorded by the BMG PHERAstar FS Multilabel Reader. All compounds were tested in triplicate at concentrations ranging from 42.5 μM to 2.2 nM in 0.83% DMSO.
Luminescence values were converted to % Fold increase by normalizing to the average of the DMSO control and multiplying by 100. Max, min, slope and AC50 were determined by the standard four parameter fit algorithm of ActivityBase XE Runner. Compounds were evaluated with three parameters—AC50, MAX % Fold, and % Fold@1.54 μM (FIG. 1). The AC50 value for a compound is the concentration (μM) corresponding to the midway between the maximum and minimum values of the four parameter logistic curve fit (i.e., at which the % fold increase along the four parameter logistic curve fit is halfway between MAX % Fold and MIN % Fold (% Fold Midpoint)), MAX % Fold is the highest fold increase observed at any concentration of compound, and % Fold@1.54 μM is the fold increase at a compound concentration of 1.54 μM. The parameter % Fold@1.54 μM was selected to capture elements of both the AC50 and MAX % Fold and to provide a ranking based on both potency and effect. The compound concentration of 1.54 μM was chosen as one that can optimally differentiate the set of compounds based on the range of activities observed.
As set forth in Table 13 below, AC50 values (columns A, D, G) are defined as follows: ≤0.1 μM (+++); >0.1 μM and ≤1.0 μM (++); >1.0 μM and ≤40 μM (+); >40 μM (0). Max % FOLD values (columns B, E, H) are defined as follows: ≤75% (+); >75% and ≤250% (++); >250% and ≤500% (+++). % Fold@1.54 μM values (columns C, F, J) are defined as follows: ≤75% (+); >75% and ≤250% (++); >250% and ≤50000 (+++).

PKR(wt) = PKR(wt) (Homo sapiens, UniProt P30613); test: Luminescence Biochemical Assay (Kinase Glo Plus), wild type PKR; details: without FBP; for activation at 1.54 µM: 1.54 μM compound, read-out: AC50 LUM KGP woFBP % Fold@1.54 μM mean; for AC50: read-out: AC50 LUM KGP woFBP AC50 μM gmean; for Emax: read-out: AC50 LUM KGP woFBP MAX % FOLD mean
Sequence of PKR(wt) (P30613 whole entry): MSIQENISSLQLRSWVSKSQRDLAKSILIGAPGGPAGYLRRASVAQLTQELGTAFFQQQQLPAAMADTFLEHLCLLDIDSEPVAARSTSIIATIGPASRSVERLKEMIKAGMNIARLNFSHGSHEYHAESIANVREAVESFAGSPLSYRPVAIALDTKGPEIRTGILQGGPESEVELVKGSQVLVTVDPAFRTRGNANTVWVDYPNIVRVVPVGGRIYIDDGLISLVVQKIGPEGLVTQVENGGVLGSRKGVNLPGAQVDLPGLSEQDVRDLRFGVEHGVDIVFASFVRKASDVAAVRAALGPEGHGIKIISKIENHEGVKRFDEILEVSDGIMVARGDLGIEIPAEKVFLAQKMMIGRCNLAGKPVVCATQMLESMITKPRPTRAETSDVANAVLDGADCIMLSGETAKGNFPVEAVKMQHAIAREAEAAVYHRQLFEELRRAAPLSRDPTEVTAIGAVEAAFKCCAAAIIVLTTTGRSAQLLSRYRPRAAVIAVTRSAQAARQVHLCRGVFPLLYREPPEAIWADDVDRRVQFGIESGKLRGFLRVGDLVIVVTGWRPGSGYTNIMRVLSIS

PKR(R510Q) = PKR(R510Q) (Homo sapiens, UniProt P30613, R510Q); test: Luminescence Biochemical Assay (Kinase Glo Plus), PKR R510Q mutant; details: without FBP; for activation at 1.54 µM: 1.54 μM compound, read-out: AC50 LUM KGP woFBP % Fold@1.54 μM mean; for Emax: read-out: AC50 LUM KGP woFBP MAX % FOLD mean
Sequence of PKR(R510Q) (P30613 whole entry R510Q): as the sequence (P30613 whole entry) above, with R510Q counted along it

[1] = read-out: AC50 LUM KGP FBP AC50 μM gmean (column A)
[2] = read-out: AC50 LUM KGP woFBP AC50 μM gmean

Sequence of PKR(G332S) (P30613 whole entry G332S): as the sequence (P30613 whole entry) above, with G332S counted along it

Row | activation at 1.54 µM (PKR(G332S)) [%] | AC50 (PKR(G332S); [1]) [µM] | Emax (PKR(G332S)) [%] | activation at 1.54 µM (PKR(wt)) [%] | AC50 (PKR(wt)) [µM] | Emax (PKR(wt)) [%] | activation at 1.54 µM (PKR(R510Q)) [%] | AC50 (PKR(R510Q); [2]) [µM] | Emax (PKR(R510Q)) [%] | AC50 (PKR(G332S); gmean, read-out: A - AC50 LUM KGP FBP AC50 μM gmean) [µM] | AC50 (PKR(R510Q); gmean, read-out: D - AC50 LUM KGP woFBP AC50 μM gmean) [µM] | SMILES
1 | 75 to 250 | 0.1 to 1 | 75 to 250 | 250 to 50000 | 0.1 to 1 | 250 to 500 | 250 to 50000 | 0.1 to 1 | 250 to 500 | – | – | O=C([C@@H](O)c1ccccn1)N1CC2=C(C1)CN(S(=O)(=O)c1ccc(OC(F)F)cc1)C2 (single isomer, unassigned) [Example 8-3]
2 | 75 to 250 | 0.1 to 1 | 75 to 250 | 75 to 250 | 1 to 40 | 250 to 500 | 75 to 250 | 1 to 40 | 250 to 500 | – | – | O=C([C@H](O)c1ccc2c(c1)NCCO2)N1CC2=C(C1)CN(S(=O)(=O)c1ccc(OC(F)F)cc1)C2 (single isomer, unassigned) [Example 9-4]
3 | 75 to 250 | ≤ 0.1 | 75 to 250 | 250 to 50000 | ≤ 0.1 | 250 to 500 | 250 to 50000 | ≤ 0.1 | 250 to 500 | – | – | O=C([C@@H](O)c1ccc2c(c1)NCCO2)N1CC2=C(C1)CN(S(=O)(=O)c1ccc(OC(F)F)cc1)C2 (single isomer, unassigned) [Example 9-5]
4 | 75 to 250 | 0.1 to 1 | 75 to 250 | 75 to 250 | 1 to 40 | 250 to 500 | 75 to 250 | 1 to 40 | 250 to 500 | – | – | CN1CCOc2ccc([C@@H](O)C(=O)N3CC4=C(C3)CN(S(=O)(=O)c3ccc(OC(F)F)cc3)C4)cc21 (single isomer, unassigned) [Example 10-1]
5 | 75 to 250 | ≤ 0.1 | 75 to 250 | 250 to 50000 | ≤ 0.1 | 250 to 500 | 250 to 50000 | 0.1 to 1 | 250 to 500 | – | – | CN1CCOc2ccc([C@H](O)C(=O)N3CC4=C(C3)CN(S(=O)(=O)c3ccc(OC(F)F)cc3)C4)cc21 (single isomer, unassigned) [Example 10-2]
6 | 75 to 250 | 1 to 40 | 75 to 250 | 75 to 250 | 1 to 40 | 75 to 250 | 250 to 50000 | 0.1 to 1 | 250 to 500 | – | – | O=C([C@@H](O)c1ccc2c(c1)CNCC2)N1CC2=C(C1)CN(S(=O)(=O)c1ccc(OC(F)F)cc1)C2 (single isomer, unassigned) [Example 11-1]
7 | 75 to 250 | 0.1 to 1 | 75 to 250 | 75 to 250 | ≤ 0.1 | 250 to 500 | 250 to 50000 | ≤ 0.1 | 250 to 500 | – | – | O=C([C@H](O)c1ccc2c(c1)CNCC2)N1CC2=C(C1)CN(S(=O)(=O)c1ccc(OC(F)F)cc1)C2 (single isomer, unassigned) [Example 11-2]
8 | 75 to 250 | 0.1 to 1 | 75 to 250 | – | – | – | 75 to 250 | 1 to 40 | 75 to 250 | – | – | COc1cccc(CNC(=O)N2CC3=C(C2)CN(S(=O)(=O)c2ccc4nsnc4c2)C3)c1 [Example 20-25, 5-(2,1,3-Benzothiadiazole-5-sulfonyl)-N-[(3-methoxyphenyl)methyl]-1H,2H,3H,4H,5H,6H-pyrrolo-[3,4-c]pyrrole-2-carboxamide]
9 | 75 to 250 | 1 to 40 | 75 to 250 | – | – | – | 75 to 250 | 1 to 40 | 250 to 500 | – | – | COc1ccccc1CNC(=O)N1CC2=C(C1)CN(S(=O)(=O)c1ccc3nsnc3c1)C2 [Example 20-27, 5-(2,1,3-Benzothiadiazole-5-sulfonyl)-N-[(2-methoxyphenyl)methyl]-1H,2H,3H,4H,5H,6H-pyrrolo[3,4-c]pyrrole-2-carboxamide]
10 | 75 to 250 | 1 to 40 | 75 to 250 | – | – | – | 75 to 250 | 1 to 40 | 75 to 250 | – | – | O=C(NCc1ccc(F)cc1)N1CC2=C(C1)CN(S(=O)(=O)c1ccc3nsnc3c1)C2 [Example 20-28, 5-(2,1,3-Benzothiadiazole-5-sulfonyl)-N-[(4-fluorophenyl)methyl]-1H,2H,3H,4H,5H,6H-pyrrolo[3,4-c]pyrrole-2-carboxamide]
11 | 75 to 250 | 1 to 40 | 75 to 250 | – | – | – | 75 to 250 | 1 to 40 | 75 to 250 | – | – | O=C(NCc1ccc(F)cc1)N1CC2=C(C1)CN(S(=O)(=O)c1cccc3cnccc13)C2 [Example 20-41, N-[(4-fluorophenyl)methyl]-5-(isoquinoline-5-sulfonyl)-1H,2H,3H,4H,5H,6H-pyrrolo[3,4-c]pyrrole-2-carboxamide]
12 | 75 to 250 | ≤ 0.1 | 75 to 250 | – | – | – | 250 to 50000 | ≤ 0.1 | 250 to 500 | – | – | Cc1cc(CNC(=O)N2CC3=C(C2)CN(S(=O)(=O)c2ccc4ncsc4c2)C3)no1 [Example 21-8, 5-(1,3-Benzothiazole-6-sulfonyl)-N-[(5-methyl-1,2-oxazol-3-yl)methyl]-1H,2H,3H,4H,5H,6H-pyrrolo[3,4-c]pyrrole-2-carboxamide]
13 | 75 to 250 | 0.1 to 1 | 75 to 250 | – | – | – | 75 to 250 | 0.1 to 1 | 250 to 500 | – | – | COCCNC(=O)N1CC2=C(C1)CN(S(=O)(=O)c1ccc3c(c1)N(C)CCO3)C2 [Example 21-24]
14 | 75 to 250 | 1 to 40 | 75 to 250 | – | – | – | 75 to 250 | 0.1 to 1 | 75 to 250 | – | – | CN1CCOc2ccc(S(=O)(=O)N3CC4=C(CN(C(=O)NCc5ccc(F)cc5)C4)C3)cc21 [Example 21-26, N-[(4-fluorophenyl)methyl]-5-[(4-methyl-3,4-dihydro-2H-1,4-benzoxazin-6-yl)sulfonyl]-1H,2H,3H,4H,5H,6H-pyrrolo[3,4-c]pyrrole-2-carboxamide]
15 | 75 to 250 | 1 to 40 | 75 to 250 | – | – | – | 75 to 250 | 1 to 40 | 250 to 500 | – | – | Cc1cc(CNC(=O)N2CC3=C(C2)CN(S(=O)(=O)c2cccnc2)C3)no1 [Example 21-38, N-[(5-methyl-1,2-oxazol-3-yl)methyl]-5-(pyridine-3-sulfonyl)-1H,2H,3H,4H,5H,6H-pyrrolo[3,4-c]pyrrole-2-carboxamide]
16 | – | – | – | – | – | – | – | – | – | 1 to 40 | 1 to 40 | C[C@@H](C(=O)N1CC2=C(C1)CN(S(=O)(=O)c1c[nH]c3c(Cl)nccc13)C2)c1ccccc1 [Example 25]
